Source: patent publication US10287530B2, “Surfactants based on monounsaturated fatty alcohol derivatives” (priority 2013, dated 2019)
Where “and” joins values, the source holds several entries; their conditions need not be identical. Equal values may be shown once. Read-outs that look alike come from different tables or passages of the source.

Legend:
[1] = format: physicochemical; details: for Rating: overall, versus control
Procedure: Surfactant candidates for water soluble herbicide applications are examined as a replacement for the anionic, nonionic, or anionic/nonionic blend portion and compared to a known industry adjuvant standard for use in paraquat, a water soluble herbicide concentrate formulation. A standard dilution test is conducted whereby the concentrates are diluted in water to determine if solubility is complete.
A known industry paraquat adjuvant (2.8 g) is added and vigorously mixed for 30 s. Deionized water (8.07 g) is added, and mixing resumes for 30 s. […] The cylinder is stoppered and inverted ten times. Solubility is recorded as complete or incomplete. Cylinders are allowed to stand and the amount (in mL) and type of separation are recorded after 30 min., 1 h, 2 h, and 24 h. Results of the solubility testing appear in Table 4 below.
An eight to ten mole alkyl phenol ethoxylate surfactant (0.7 g) is added and vigorously mixed for 30 s. Test sample (0.7 g) is added and mixing resumes for 30 s. Deionized water (4.03 g) is added, and mixing resumes for 30 s.
Test sample (0.7 g) is added and vigorously mixed for 30 s. Sodium linear alkylbenzene sulfonate (“NaLAS,” 0.7 g) is added and mixing resumes for 30 s. Deionized water (4.03 g) is added, and mixing resumes for 30 s.
Test sample (1.4 g) is added and vigorously mixed for 30 s. Deionized water (4.03 g) is added, and mixing resumes for 30 s.

[2] = Surfactant phase behavior study by cross-polarized microscopy; format: physicochemical; details: in deionized water, room temperature (20-22° C.); boundaries are estimates (±5%)
Procedure: Phase behavior is observed using an Olympus BH-2 cross-polarized microscope at 100-400× and room temperature (20° C. to 22° C.). The monounsaturated C11 alcohol derivatives (sulfates, ethoxylate sulfates, and alcohol ethoxylates) are compared with their saturated analogs. Samples are prepared by diluting the most concentrated product gradually with deionized water. When the surfactant concentration approaches a phase transition, the concentration is varied at 2-4% intervals to estimate the phase boundary. The actives level reported in Table 6 for each phase boundary is within ±5% of the true boundary. Samples are loaded between a microscope slide and cover glass and are allowed to equilibrate before observation. Microscopic texture is analyzed and used to determine the phase. For some samples, an AR 2000 rheometer (TA Instruments) is used to measure viscosity at 25° C. to further verify phase behavior.

[3] = Interfacial tension (IFT) against light mineral oil, synergy study with cationic surfactant; format: physicochemical; details: for IFT at 0.1% actives/mineral oil (blend): 1:1 molar blend of the anionic with Ammonyx Cetac 30, 0.1% actives, light mineral oil; for Calculated IFT (no synergy): expected IFT of the 1:1 molar blend with Ammonyx Cetac 30 by ideal mixing; for Synergy?: measured versus expected IFT of the 1:1 molar blend with Ammonyx Cetac 30; for IFT at 0.1% actives (single component): 0.1 wt. % active against light mineral oil, ambient temperature
Procedure: (§1) The surfactant blends tested are prepared at a 1:1 molar ratio without any pH adjustment. Dilutions are made using deionized water to the desired actives level. Actives amounts are wt. % unless indicated otherwise. Appearances are reported at ambient temperature for samples prepared within the last 24 h.
Interfacial tension (IFT) of all the individual components and their blends is measured at 0.1 wt. % active against light mineral oil at ambient temperature using a Kruss DSA-20 pendent drop tensiometer. The drop is blown out at 600 μL/min., and a video is recorded for 100 s. The video frames taken during the last 15 s are analyzed and used for the IFT calculation.
For blends having an IFT less than 0.5 mN/m, the IFT is determined using a spinning drop tensiometer (University of Texas 500) at 25° C. Oil density=0.877 g/cm^3 and surfactant density=0.997 g/cm^3 are used for the IFT calculation.
The expected IFT for a blend is calculated based on ideal mixing (non-synergistic) using the active component in each blend. The equation used is given as: Expected IFT=X*IFTa+(1−X)*IFTb where X is the actives % of component A, IFTa is the IFT of component A, and IFTb is the IFT of component B. If the measured IFT for a blend is less than the expected IFT, then the blend is synergistic. If the measured IFT for a blend is higher than the expected IFT, the system is antagonistic.

[4] = test system: zein, yellow corn (maize) protein
Procedure: The zein test is based on solubilization by surfactants of a yellow corn (maize) protein that is normally insoluble in water unless it is denatured. The test gravimetrically determines the amount of zein dissolved by a surfactant solution. The solubility of zein in surfactant solutions correlates well with skin irritation or roughness caused by the surfactant. […] A higher zein number corresponds to a greater degree of irritation.
A 1% actives solution of each test surfactant (120 mL) is prepared. The pH of each solution is adjusted to about 7.0 with dilute aq. sulfuric acid or dilute aq. sodium hydroxide. The surfactant solution is warmed to 45° C. Zein powder (1.50 g) is added to each of three jars. Surfactant (25.0 g of 1% actives solution) is added to each jar, and to one empty jar to be used as a blank. The solutions are mixed using magnetic stirring on a temperature-controlled hotplate at 45° C. for 60 min. Each mixture is then centrifuged (2500 rpm, 15 min.), and undissolved zein powder is isolated by vacuum filtration. The residue is washed with deionized water and dried (55° C., 24 h) to constant weight. The amount of undissolved zein protein is found gravimetrically, and the results from three runs are averaged to give the % of solubilized zein and zein number.

[5] = Appearance and solubility of surfactants and of 1:1 molar blends with cationic surfactant; format: physicochemical; details: for Appearance, 0.1%: 1:1 molar blend of the anionic with Ammonyx Cetac 30, 0.1% actives; for Appearance, 0.1% / Appearance, 1.0%: ambient temperature; for Appearance, 1.0%: 1:1 molar blend of the anionic with Ammonyx Cetac 30, 1.0% actives
Procedure: as §1

[6] = Anionic test sample, 342 ppm water
[7] = Nonionic test sample, 342 ppm water
[8] = Adjuvant (anionic/nonionic) test sample, 342 ppm water
[9] = corn (maize), 60 min, 1 % actives, pH 7

Molecule	Emulsion stability, mL separation, 1 h [1, 6]	Emulsion stability, mL separation, 24 h [1, 7]	Rating [1]	Estimated Phase Region as a Function of % Actives Level: Hexagonal [2]	Estimated Phase Region as a Function of % Actives Level: Isotropic Clear [2]	Estimated Phase Region as a Function of % Actives Level: Lamellar [2]	Estimated Phase Region as a Function of % Actives Level: Solid/gum/paste [2]	IFT at 0.1% actives/mineral oil (blend) [3]	Calculated IFT (no synergy) [3]	Synergy? [3]	IFT at 0.1% actives (single component) [3]	Emulsion stability, mL separation, 1 h [1, 8]	Emulsion stability, mL separation, 24 h [1, 6]	Emulsion stability, mL separation, 1 h [1, 7]	Solubility [5]	Appearance, 0.1% [5]	Appearance, 1.0% [5]	Emulsion stability, mL separation, 24 h [1, 8]	also measured
1-Undecanol, 1EO Ether Sulfate, Ammonium Salt [Sat. 1EO NH4 sulfate]	0 mL	0 mL	good	26-58 % actives	0-26 % actives	67-85 % actives	85-100 % actives	0.85 mN/m	6.2 mN/m	high	12.40 mN/m	–	–	–	–	–	–	–	Estimated Phase Region as a Function of % Actives Level: Cubic [2]: 58-67 % actives
1-Undecanol, 3EO Ether Sulfate, Sodium Salt [Sat. C11 alcohol 3EO Na sulfate]	0 mL	0.5 mL	good	33-58 % actives	0-33 % actives	58-82 % actives	82-100 % actives	0.03 mN/m	4.58 mN/m	very high	8.80 mN/m	0 mL	0 mL	0.1 mL	fair-poor	hazy liquid	separated	–	% solubilized zein [4]: 22.3%; zein number [4]: 44.9
CCCCCCCCCCCCCCCC[N+](C)(C)C.[Cl-] [Ammonyx ® Cetac 30 (cetrimonium CI), cetrimonium CI]	–	–	–	–	–	–	–	–	–	–	0.35 mN/m and 0.38 mN/m	–	–	–	–	–	–	–	–
CCCCCCCCCCCOS(=O)(=O)[O-].[Na+] [Sat. C11 alcohol Na sulfate, 1-Undecanol Sulfate, Sodium Salt]	0 mL	0.3 mL	good	33-43 % actives	0-33 % actives	–	43-100 % actives	2.67 mN/m	8.35 mN/m	above average	16.34 mN/m	0.2 mL	0 mL	0.2 mL	–	separated	separated	0.4 mL	% solubilized zein [4, 9]: 52.9%; zein number [4, 9]: 107; sol (solubility) [1, 8]: I; sol (solubility) ([1]; Anionic test sample: replaces anionic portion, paraquat concentrate in 342 ppm water, 30° C.): S; sol (solubility) ([1]; Nonionic test sample: replaces nonionic portion (with NaLAS), 342 ppm water): I; Solubility ([5]; 1:1 molar blend of the anionic with Ammonyx Cetac 30): poor
Undecylenic Alcohol Sulfate, Sodium Salt [Unsat. C11 alcohol Na sulfate]	0 mL	0.4 mL	good	–	0-68 % actives	–	68-100 % actives	0.17 mN/m	3.16 mN/m	–	5.95 mN/m	0 mL	0 mL	0.25 mL	good	–	–	0.25 mL	% solubilized zein ([4]; 1% actives solution, pH about 7.0, 45° C., 60 min, average of three runs): 9.6%; zein number ([4]; relative to 1% actives Stepanol WA-Extra PCK (SLS) control = 100, higher = more irritating, average of three runs): 19.3; Synergy? ([3]; listed as Unsat C11 Na sulfate, Sulfate, Sodium Salt): very high; Synergy? ([3]; listed as unsaturated C11 alcohol sulfate, sodium salt, Sulfate, Sodium Salt): very high synergy
Undecylenic Alcohol, 1EO Ether Sulfate, Ammonium Salt [Unsat. 1EO NH4 sulfate]	–	–	good	31-58 % actives	0-31 % actives	58-91 % actives	91-100 % actives	0.60 mN/m	8.8 mN/m	very high	17.22 mN/m	0 mL	0 mL	0 mL	–	–	–	0 mL	–
